{
  "source": "paper PMC7366380",
  "about": "“Discovery of a Potent and Selective Covalent Inhibitor and Activity-Based Probe for the Deubiquitylating Enzyme UCHL1, with Antifibrotic Activity” (Journal of the American Chemical Society, 2020)",
  "assay_in_all_cases": "Quantitative chemical proteomic profiling of ABP 2 in HEK293 cells: other DUBs and proteins across the proteome",
  "key": {"[1]": {"molecular_target": "DUBs and other proteins in HEK293 cells (Homo sapiens, UniProt P51784)", "sequence (P51784 whole entry)": "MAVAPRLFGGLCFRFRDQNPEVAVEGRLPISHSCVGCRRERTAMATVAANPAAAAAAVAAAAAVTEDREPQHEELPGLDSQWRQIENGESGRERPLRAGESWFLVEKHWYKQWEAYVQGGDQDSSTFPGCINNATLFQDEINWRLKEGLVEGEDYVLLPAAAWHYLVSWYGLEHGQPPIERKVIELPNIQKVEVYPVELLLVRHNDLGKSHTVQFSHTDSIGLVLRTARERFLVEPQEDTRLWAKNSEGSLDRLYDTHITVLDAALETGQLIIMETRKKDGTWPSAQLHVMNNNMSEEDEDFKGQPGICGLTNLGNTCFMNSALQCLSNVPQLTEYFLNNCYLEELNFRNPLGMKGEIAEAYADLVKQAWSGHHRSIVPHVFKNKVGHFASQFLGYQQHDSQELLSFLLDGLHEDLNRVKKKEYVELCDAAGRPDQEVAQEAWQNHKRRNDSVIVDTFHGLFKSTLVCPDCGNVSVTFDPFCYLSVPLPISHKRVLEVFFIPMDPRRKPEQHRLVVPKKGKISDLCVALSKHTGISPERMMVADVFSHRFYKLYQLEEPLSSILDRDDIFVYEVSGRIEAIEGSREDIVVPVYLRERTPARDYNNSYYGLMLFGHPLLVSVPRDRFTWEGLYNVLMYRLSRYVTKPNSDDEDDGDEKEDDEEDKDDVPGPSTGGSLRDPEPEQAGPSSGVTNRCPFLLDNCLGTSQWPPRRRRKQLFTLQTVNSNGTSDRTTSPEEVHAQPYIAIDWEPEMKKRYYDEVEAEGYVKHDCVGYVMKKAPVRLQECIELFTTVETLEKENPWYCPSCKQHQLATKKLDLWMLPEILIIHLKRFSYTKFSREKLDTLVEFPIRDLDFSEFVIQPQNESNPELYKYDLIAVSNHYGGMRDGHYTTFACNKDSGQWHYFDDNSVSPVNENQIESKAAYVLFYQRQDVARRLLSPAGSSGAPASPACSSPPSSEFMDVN", "conditions": "USP11, listed as ABP 2"}, "[2]": {"molecular_target": "DUBs and other proteins in HEK293 cells (Homo sapiens, UniProt Q6P2Q9)", "conditions": "PRPF8, listed as ABP 2"}, "[3]": {"molecular_target": "DUBs and other proteins in HEK293 cells (Homo sapiens, UniProt P54578)", "sequence (P54578 whole entry)": "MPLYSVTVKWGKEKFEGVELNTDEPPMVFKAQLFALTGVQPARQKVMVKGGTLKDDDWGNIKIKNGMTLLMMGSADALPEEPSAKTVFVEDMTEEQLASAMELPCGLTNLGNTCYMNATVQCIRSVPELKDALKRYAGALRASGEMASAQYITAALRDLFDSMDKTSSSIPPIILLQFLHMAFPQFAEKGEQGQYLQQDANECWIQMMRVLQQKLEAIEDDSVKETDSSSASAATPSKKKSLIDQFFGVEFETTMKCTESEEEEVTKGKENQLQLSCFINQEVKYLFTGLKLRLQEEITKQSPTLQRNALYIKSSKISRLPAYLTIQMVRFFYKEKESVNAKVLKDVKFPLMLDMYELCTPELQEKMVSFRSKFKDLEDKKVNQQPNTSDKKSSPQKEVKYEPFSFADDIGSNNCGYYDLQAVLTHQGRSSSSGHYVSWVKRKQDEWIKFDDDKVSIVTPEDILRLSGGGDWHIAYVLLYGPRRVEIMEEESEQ", "conditions": "USP14, listed as ABP 2"}, "[4]": {"molecular_target": "T1, DUBs and other proteins in HEK293 cells (Homo sapiens, UniProt Q9Y4E8)", "T1 sequence (Q9Y4E8 1-981)": "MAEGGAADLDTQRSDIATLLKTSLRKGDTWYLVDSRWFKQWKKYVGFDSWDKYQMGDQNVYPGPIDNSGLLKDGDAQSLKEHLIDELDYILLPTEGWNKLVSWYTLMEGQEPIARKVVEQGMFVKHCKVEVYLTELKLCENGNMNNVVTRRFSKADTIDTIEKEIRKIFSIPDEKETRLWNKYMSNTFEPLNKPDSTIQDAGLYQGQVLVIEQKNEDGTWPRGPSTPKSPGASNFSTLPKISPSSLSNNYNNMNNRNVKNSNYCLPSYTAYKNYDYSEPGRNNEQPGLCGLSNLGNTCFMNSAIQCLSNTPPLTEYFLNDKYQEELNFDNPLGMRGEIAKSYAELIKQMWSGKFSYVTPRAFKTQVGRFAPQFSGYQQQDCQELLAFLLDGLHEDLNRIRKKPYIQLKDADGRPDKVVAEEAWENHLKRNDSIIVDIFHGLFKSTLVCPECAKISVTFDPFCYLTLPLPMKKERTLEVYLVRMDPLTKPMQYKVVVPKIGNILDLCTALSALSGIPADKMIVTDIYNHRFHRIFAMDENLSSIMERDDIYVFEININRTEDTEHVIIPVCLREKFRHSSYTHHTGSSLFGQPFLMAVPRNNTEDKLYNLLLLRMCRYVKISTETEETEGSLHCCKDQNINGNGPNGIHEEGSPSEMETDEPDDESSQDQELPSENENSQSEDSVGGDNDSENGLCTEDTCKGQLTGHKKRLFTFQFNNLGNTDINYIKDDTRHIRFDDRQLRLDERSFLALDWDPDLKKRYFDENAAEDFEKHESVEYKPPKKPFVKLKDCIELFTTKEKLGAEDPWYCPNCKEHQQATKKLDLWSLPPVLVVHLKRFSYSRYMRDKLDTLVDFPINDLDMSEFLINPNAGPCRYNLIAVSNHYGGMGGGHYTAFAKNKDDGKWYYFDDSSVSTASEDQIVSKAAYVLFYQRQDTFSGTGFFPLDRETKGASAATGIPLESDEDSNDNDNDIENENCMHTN", "conditions": "USP15, listed as ABP 2"}, "[5]": {"molecular_target": "T2, DUBs and other proteins in HEK293 cells (Homo sapiens, UniProt Q53GS9)", "T2 sequence (Q53GS9 1-565)": "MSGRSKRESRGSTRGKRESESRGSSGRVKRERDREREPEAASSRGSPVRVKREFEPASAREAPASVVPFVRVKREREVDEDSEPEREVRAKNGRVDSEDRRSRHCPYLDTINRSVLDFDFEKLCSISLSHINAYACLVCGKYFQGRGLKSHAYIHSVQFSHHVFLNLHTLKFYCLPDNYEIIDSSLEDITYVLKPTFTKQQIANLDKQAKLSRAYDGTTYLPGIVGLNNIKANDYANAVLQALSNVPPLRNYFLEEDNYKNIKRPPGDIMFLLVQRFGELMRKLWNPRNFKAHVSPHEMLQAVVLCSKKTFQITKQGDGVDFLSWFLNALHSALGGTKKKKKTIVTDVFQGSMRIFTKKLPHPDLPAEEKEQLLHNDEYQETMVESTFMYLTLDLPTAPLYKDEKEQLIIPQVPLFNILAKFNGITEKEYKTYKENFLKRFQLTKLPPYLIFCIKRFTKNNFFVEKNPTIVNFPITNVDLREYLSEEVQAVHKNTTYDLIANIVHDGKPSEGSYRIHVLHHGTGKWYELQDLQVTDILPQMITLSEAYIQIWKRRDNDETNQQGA", "conditions": "USP39"}, "[6]": {"conditions": "200 nM, 180 min, replicates A,C"}},
  "note": "Values joined by “and” are separate entries in the source; they are usually repeats but may differ in a detail not shown here. Equal values may be shown once.",
  "data": [
    {"smiles": "C#Cc1cnc2[nH]cc(-c3cccc4c3CCN4C(=O)[C@@H]3CCCN3C#N)c2c1", "note": "[Compound 2]", "values": [
      {"measurement": "Log2 reporter intensity values (Log2FC, DMSO substract)", "setting": "[1]; 2 nM, 60 min, replicates A-C", "value": "0.1233 and -0.3054 and -0.2167"},
      {"measurement": "Log2 reporter intensity values (Log2FC, DMSO substract)", "setting": "[1]; 20 nM, 10 min, replicates B,C", "value": "-0.09443 and -0.2626"},
      {"measurement": "Log2 reporter intensity values (Log2FC, DMSO substract)", "setting": "[1]; 20 nM, 60 min, replicates A-C", "value": "-0.4096 and 0.07333 and 0.009688"},
      {"measurement": "Log2 reporter intensity values (Log2FC, DMSO substract)", "setting": "[1]; 20 nM, 180 min, replicates A-C", "value": "-0.127 and -0.3984 and -0.1331"},
      {"measurement": "Log2 reporter intensity values (Log2FC, DMSO substract)", "setting": "[1]; 200 nM, 10 min, replicates B,C", "value": "0.008113 and -0.08322"},
      {"measurement": "Log2 reporter intensity values (Log2FC, DMSO substract)", "setting": "[1]; 200 nM, 60 min, replicates A-C", "value": "0.1655 and -0.03212 and -0.2868"},
      {"measurement": "Log2 reporter intensity values (Log2FC, DMSO substract)", "setting": "[1]; [6]", "value": "0.2311 and 0.03651"},
      {"measurement": "Log2 reporter intensity values (Log2FC, DMSO substract)", "setting": "[2]; 2 nM, 60 min, replicates A-C", "value": "-0.06588 and -0.04701 and -0.09225"},
      {"measurement": "Log2 reporter intensity values (Log2FC, DMSO substract)", "setting": "[2]; 20 nM, 10 min, replicates B,C", "value": "-0.04258 and -0.0756"},
      {"measurement": "Log2 reporter intensity values (Log2FC, DMSO substract)", "setting": "[2]; 20 nM, 60 min, replicates A-C", "value": "-0.1603 and -0.1771 and -0.09715"},
      {"measurement": "Log2 reporter intensity values (Log2FC, DMSO substract)", "setting": "[2]; 20 nM, 180 min, replicates A-C", "value": "-0.4052 and -0.02523 and -0.1285"},
      {"measurement": "Log2 reporter intensity values (Log2FC, DMSO substract)", "setting": "[2]; 200 nM, 10 min, replicates B,C", "value": "-0.213 and -0.1784"},
      {"measurement": "Log2 reporter intensity values (Log2FC, DMSO substract)", "setting": "[2]; 200 nM, 60 min, replicates A-C", "value": "0.0802 and -0.1457 and -0.1731"},
      {"measurement": "Log2 reporter intensity values (Log2FC, DMSO substract)", "setting": "[2]; [6]", "value": "-0.0003694 and 0.003479"},
      {"measurement": "Log2 reporter intensity values (Log2FC, DMSO substract)", "setting": "[3]; 2 nM, 60 min, replicates A-C", "value": "0.01071 and 0.05631 and -0.04364"},
      {"measurement": "Log2 reporter intensity values (Log2FC, DMSO substract)", "setting": "[3]; 20 nM, 10 min, replicates B,C", "value": "0.009394 and 0.07693"},
      {"measurement": "Log2 reporter intensity values (Log2FC, DMSO substract)", "setting": "[3]; 20 nM, 60 min, replicates A-C", "value": "0.05332 and 0.1025"},
      {"measurement": "Log2 reporter intensity values (Log2FC, DMSO substract)", "setting": "[3]; 20 nM, 180 min, replicates A-C", "value": "0.1385 and 0.1351 and 0.05551"},
      {"measurement": "Log2 reporter intensity values (Log2FC, DMSO substract)", "setting": "[3]; 200 nM, 10 min, replicates B,C", "value": 0.1048},
      {"measurement": "Log2 reporter intensity values (Log2FC, DMSO substract)", "setting": "[3]; 200 nM, 60 min, replicates A-C", "value": "0.05455 and 0.04834 and 0.1109"},
      {"measurement": "Log2 reporter intensity values (Log2FC, DMSO substract)", "setting": "[3]; [6]", "value": "-0.08272 and -0.01544"},
      {"measurement": "Log2 reporter intensity values (Log2FC, DMSO substract)", "setting": "[4]; 2 nM, 60 min, replicates A-C", "value": "0.1138 and 0.004511 and -0.04471"},
      {"measurement": "Log2 reporter intensity values (Log2FC, DMSO substract)", "setting": "[4]; 20 nM, 10 min, replicates B,C", "value": "0.2038 and 0.1797"},
      {"measurement": "Log2 reporter intensity values (Log2FC, DMSO substract)", "setting": "[4]; 20 nM, 60 min, replicates A-C", "value": "0.04003 and 0.2301 and -0.05461"},
      {"measurement": "Log2 reporter intensity values (Log2FC, DMSO substract)", "setting": "[4]; 20 nM, 180 min, replicates A-C", "value": "-0.06212 and 0.248 and 0.23"},
      {"measurement": "Log2 reporter intensity values (Log2FC, DMSO substract)", "setting": "[4]; 200 nM, 10 min, replicates B,C", "value": "-0.05955 and -0.05362"},
      {"measurement": "Log2 reporter intensity values (Log2FC, DMSO substract)", "setting": "[4]; 200 nM, 60 min, replicates A-C", "value": "0.07483 and 0.06943 and 0.1943"},
      {"measurement": "Log2 reporter intensity values (Log2FC, DMSO substract)", "setting": "[4]; [6]", "value": "0.004999 and 0.2331"},
      {"measurement": "Log2 reporter intensity values (Log2FC, DMSO substract)", "setting": "[5]; 2 nM, 60 min, replicates A-C, listed as ABP 2", "value": "0.1489 and -0.6669"},
      {"measurement": "Log2 reporter intensity values (Log2FC, DMSO substract)", "setting": "[5]; 20 nM, 10 min, replicates B,C", "value": 0.2437},
      {"measurement": "Log2 reporter intensity values (Log2FC, DMSO substract)", "setting": "[5]; 20 nM, 60 min, replicates A-C, listed as ABP 2", "value": "0.1765 and 0.5295"},
      {"measurement": "Log2 reporter intensity values (Log2FC, DMSO substract)", "setting": "[5]; 20 nM, 180 min, replicates A-C, listed as ABP 2", "value": "0.1037 and 0.2866"},
      {"measurement": "Log2 reporter intensity values (Log2FC, DMSO substract)", "setting": "[5]; 200 nM, 10 min, replicates B,C", "value": 0.594},
      {"measurement": "Log2 reporter intensity values (Log2FC, DMSO substract)", "setting": "[5]; 200 nM, 60 min, replicates A-C, listed as ABP 2", "value": "0.3986 and 0.5245"},
      {"measurement": "Log2 reporter intensity values (Log2FC, DMSO substract)", "setting": "[5]; [6]", "value": 0.3314}
    ]}
  ]
}
